Tests used:
Assay type in all cases: cell-based
[1] = molecular target: T1, human GPR40 (Homo sapiens, UniProt O14842); test: FLIPR intracellular calcium assay in HEK-293 cells transiently expressing GPR40 (with G-protein cocktail); settings: for pEC50 / EC50: Additional Fatty Acid Compounds
Excerpt: The Fluorometric Imaging Plate Reader (FLIPR™, Molecular Devices, UK) measures intracellular fluorescense in multi-well microplates. Where a GPCR couples to a calcium signalling pathway, the FLIPR system can be used with cells expressing the G-protein coupled receptor and containing calcium-sensitive fluorescent dyes, to monitor the intracellular calcium flux that occurs after activation of the G-coupled receptor. See, e.g., Kirk et al., J. Biomolecular Screening, 1:75 (1996).
(§1) The assays utilized a G-protein cocktail (+GPC) that contained chimeric and promiscuous G-proteins, as is known in the art of screening orphan G-protein coupled receptors.

[2] = tested on: PGRW; test: FLIPR intracellular calcium assay in HEK-293 cells transiently expressing control 7TM receptor PGRW; settings: HEK-293 cells transiently expressing PGRW; Figure 1
Excerpt: as §1

[3] = tested on: HLTEX11; test: FLIPR intracellular calcium assay in HEK-293 cells transiently expressing control 7TM receptor HLTEX11; settings: HEK-293 cells transiently expressing HLTEX11; Figure 1
Excerpt: as §1

[4] = molecular target: T1, human GPR40; test: 3X-CRE-luciferase reporter assay in CHO cells (Gs coupling); parameters: expressed in transfected cells; host or cells: wild-type CHO cells, transient co-transfection (CMV-GPR40 + 3x-CRE-Luc); settings: CRE-Luc; cells containing reporter only and cells containing GPR40; 4 hours of treatment; Figure 3c
Protocol: Specific coupling was determined in mammalian cells using transient expression of a CRE-luciferase reporter for Gαs and stable cell-lines containing Gal4/ELK-1-luciferase reporter for Gαq/Gαi. Wild-type CHO cells were co-transfected with 3X-CRE-luciferase reporter vector and various amounts of an expression vector for GPR40. The control cells were transfected with reporter vector only. The reporter gene plasmids were produced in house but similar vectors can be purchased from Stratagene ([…]®). Cells were plated in a 24 well tissue culture plate at 1 x 10^4 cells/well in DMEM/F12 supplemented with 5% FBS. After 72 hours at 37°C, 5% CO2, the cells were transfected using the liposomal transfection reagent sold under the trademark LIPOFECTAMINE® and with the following combinations of plasmids: • A- 3x-CRE-Luc • B- 3x-CRE-Luc + CMV-GPR40 • C- 3x-CRE-Luc + CMV-Gs coupled receptor The concentration of reporter plasmid for all wells was 0.15µg/well. Concentrations of receptor plasmids were 0.5, 1.0, 5.0, 10.0 ng/well. After 24hrs Cells containing 1ng/well of receptor plasmid or no DNA control and CRE-Luc reporter were treated with fatty acid or the calcitonin which is known to act through a Gs-coupled receptor (Chakraborty, Science 251: 1078 (1991)) at concentrations indicated. […]

[5] = tested on: CHO GAL4/Elk-1 reporter cell line; test: GAL4/Elk-1 luciferase reporter assay in host CHO cells (reporter only), with and without pertussis toxin
Excerpt: (§2) To further test the coupling of GPR40 to Gαi/Gαq a Gal4/Elk-1 reporter was used. A stable, clonal reporter line was created by transfecting CHO cells with a plasmid that contains an expression construct for GAL4/Elk-1 and a GAL4-luciferase reporter construct. A similar reporter system can now be purchased from Stratagene (under the trademark […]®). An expression construct for human GPR40 which contains a G418 resistance construct was transfected into the host CHO GAL4/Elk-1 reporter cell line (10ug plasmid DNA pCR3-GPR40) via electroporation. The cell lines were selected for with 500ug/mL G418 until all cells in the control were dead and clones were then picked. The Gal4/Elk-1 reporter can be activated through Gq or Gi. To confirm coupling via Gi, cells were treated with pertussis toxin treatment which ADP-ribosylates Gαi preventing its interaction with receptors (Bokoch et al., J. Biol. Chem 258:2072 (1983)). Pertussis toxin has no known effect on Gαq.
(§3) Host cells and those transfected with the GPR40 construct were plated in a 96-well tissue culture plate at 2000 cells/well in DMEM/F12 supplemented with 5% FBS. After 48 hours at 37°C at 5% CO2 the cells were placed in serum-free DMEM/F12 in the presence or absence of 1ug/ml pertussis toxin. […]

[6] = molecular target: T1, human GPR40; test: GAL4/Elk-1 luciferase reporter assay in CHO clones transfected with human GPR40, with and without pertussis toxin; parameters: expressed in transfected cells; host or cells: wild-type CHO cells, transient co-transfection (CMV-GPR40 + 3x-CRE-Luc); settings: cells containing GPR40, Figure 4B
Excerpt: as §2, §3

T1 sequence (O14842 whole entry): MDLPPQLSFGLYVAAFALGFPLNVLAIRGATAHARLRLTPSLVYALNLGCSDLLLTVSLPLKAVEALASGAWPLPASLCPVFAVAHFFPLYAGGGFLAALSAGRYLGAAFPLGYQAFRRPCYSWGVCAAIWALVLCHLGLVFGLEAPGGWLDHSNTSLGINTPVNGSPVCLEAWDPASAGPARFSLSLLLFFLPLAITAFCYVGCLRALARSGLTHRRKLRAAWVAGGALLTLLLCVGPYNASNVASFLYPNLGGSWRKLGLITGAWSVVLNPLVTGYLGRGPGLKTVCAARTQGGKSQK

## CCCCCCCC/C=C/CCCCCCCC(=O)O [Elaidic acid]
[1]; FLIPR
  pEC50: 4.87
[1]; HEK-293 cells transiently expressing GPR40, +GPC, Figure 1
  FLIPR response (intracellular calcium levels): response detected
[2]
  FLIPR response: No response
[3]
  FLIPR response: No response

## CCCCC/C=C\C/C=C\C/C=C\C/C=C\CCCC(=O)O [Arachidonic acid]
[1]; FLIPR
  pEC50: 5.04

## CCCCCCCCCCC/C=C\C/C=C\CCCC(=O)O [Eicosa-5Z,8Z-dienoic acid]
[1]; FLIPR
  pEC50: 5.11

## CCCCC/C=C\C/C=C\CCCCCCCCCC(=O)O [Eicosa-11Z,14Z-dienoic acid]
[1]; FLIPR
  pEC50: 4.97

## CC/C=C\C/C=C\C/C=C\C/C=C\C/C=C\CCCC(=O)O [Eicosa-5Z,8Z,11Z,14Z,17Z-pentaenoic acid]
[1]; FLIPR
  pEC50: 5.17

## CCCCC/C=C\C/C=C\C/C=C\C/C=C\CCCCCC(=O)O [Adrenic acid]
[1]; FLIPR
  EC50: 13.5 µM
  pEC50: 4.87

## calcitonin
[4]
  luciferase production: increase

## CC/C=C\C/C=C\C/C=C\CCCCCCCCCCCC(=O)O [Docosa-13Z,16Z,19Z-trienoic acid]
[1]; FLIPR
  pEC50: 5.17

## CC1=C(/C=C/C(C)=C/C=C/C(C)=C/C=O)C(C)(C)CCC1 [All-trans-retinal]
[1]; mean over experiments (n=1 or n=2 where printed), FLIPR
  Mean pEC50 of 3 expts: 4.16

## CCCCCCCCC#CCC#CCC#CCCCC(=O)O [5,8,11-Eicosatriynoic acid]
[1]; FLIPR
  pEC50: 5.77
[5]; Figure 4B
  luciferase production: no effect
[4]
  luciferase production: no effect
[6]; 1ug/ml pertussis toxin
  effect of pertussis toxin treatment on the stimulated luciferase activity: not inhibited
[6]
  luciferase activity compared to basal: increased

## CCCCC[C@H](O)[C@H](O)/C=C/C=C/C=C\C/C=C\CCCC(=O)O [14®, 15(S)-DiHETE]
[1]; FLIPR
  EC50: 23.4 µM
  pEC50: 4.63

## CCC=CCC=CCC=CCC=CCC=CC/C=C\CCC(=O)O [cis-4,7,10,13,16,19-Docosahexaenoic acid]
[1]; FLIPR
  pEC50: 5.79

## CCCCCCCC/C=C\CCCCCCCC(=O)OC[C@@H](O)COP(=O)(O)O [LPA, lysophosphatidic acid (oleoyl)]
[5]; 1ug/ml pertussis toxin, Figures 4A, 4C
  agonist-stimulated reporter activity following pertussis toxin treatment: completely abolished

## CCCCC/C=C\C/C=C\C/C=C\CCCCCCC(=O)O [Dihomo-gamma-linolenic acid]
[1]; FLIPR
  pEC50: 5.14

## CC/C=C\C/C=C\C/C=C\CCCCCCCCCC(=O)O [Eicosa-11Z,14Z,17Z-trienoic acid]
[1]; FLIPR
  pEC50: 4.95

## CC/C=C\C/C=C\C/C=C\C/C=C\C/C=C\CCCCCC(=O)O [Docosa-7Z,10Z,13Z,16Z,19Z-pentaenoic acid]
[1]; FLIPR
  pEC50: 5.33

## C#CCCCCCCCCCCCCCCCC(=O)O [17-Octadecynoic acid]
[1]; FLIPR
  pEC50: 5.12

## CCCCCCCC/C=C\C/C=C\C/C=C\CCCC(=O)O [Mean acid]
[1]; FLIPR
  EC50: 2.51 µM
  pEC50: 5.60

## CCCCC/C=C\C/C=C\CCCCCCCC(=O)O [Linoleic acid]
[1]; FLIPR
  pEC50: 5.02

— patent publication EP1354200B1, “METHOD OF SCREENING FOR GPR40 LIGANDS” (priority 2000, dated 2002)
